Assay results: ChEMBL document CHEMBL1201862, “PubChem BioAssay data set” (2004)
The source made the active and inactive calls.

Legend:
[1] = system: Vero; test: cells; assay type: functional, cell-based; details: Chlorocebus sabaeus
[2] = system: Vero; test: cells; assay type: functional; details: Chlorocebus sabaeus
[3] = Counterscreen for AddAB inhibitors: absorbance-based bacterial cell-based high throughput dose response assay for inhibitors of bacterial viability. [Related pubchem assays (depositor defined):AID435030, AID449728, AID449731, AID488942, AID488955, AID488956]; assay type: functional
[4] = molecular target: T1, Exodeoxyribonuclease V (Escherichia coli (strain K12), UniProt P04993+P07648+P08394); test: RecBCD inhibition via phage-restricted bacterial growth – absorbance, V66 E. coli, mutant T4 phage, counter-screen for AddAB inhibitor project, dose response (AID 492957); assay type: functional, cell-based, Escherichia coli str. K-12 substr. MG1655
T1 sequence (P04993 whole entry): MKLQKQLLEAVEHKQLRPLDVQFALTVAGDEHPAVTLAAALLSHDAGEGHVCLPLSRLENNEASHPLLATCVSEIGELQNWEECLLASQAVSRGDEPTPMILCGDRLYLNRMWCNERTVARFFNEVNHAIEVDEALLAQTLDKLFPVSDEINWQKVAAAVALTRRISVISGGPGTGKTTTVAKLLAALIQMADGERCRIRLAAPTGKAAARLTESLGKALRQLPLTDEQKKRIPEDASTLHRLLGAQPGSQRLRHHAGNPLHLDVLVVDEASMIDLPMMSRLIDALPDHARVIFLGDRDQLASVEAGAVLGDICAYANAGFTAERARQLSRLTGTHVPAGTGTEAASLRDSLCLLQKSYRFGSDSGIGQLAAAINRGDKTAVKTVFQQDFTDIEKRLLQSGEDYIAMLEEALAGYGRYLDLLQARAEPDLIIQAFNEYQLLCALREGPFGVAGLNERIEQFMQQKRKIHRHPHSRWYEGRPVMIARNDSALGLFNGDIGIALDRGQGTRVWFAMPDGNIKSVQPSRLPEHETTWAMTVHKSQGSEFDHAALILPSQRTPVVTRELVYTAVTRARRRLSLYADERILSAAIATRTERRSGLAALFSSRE
T1 sequence (P07648 whole entry): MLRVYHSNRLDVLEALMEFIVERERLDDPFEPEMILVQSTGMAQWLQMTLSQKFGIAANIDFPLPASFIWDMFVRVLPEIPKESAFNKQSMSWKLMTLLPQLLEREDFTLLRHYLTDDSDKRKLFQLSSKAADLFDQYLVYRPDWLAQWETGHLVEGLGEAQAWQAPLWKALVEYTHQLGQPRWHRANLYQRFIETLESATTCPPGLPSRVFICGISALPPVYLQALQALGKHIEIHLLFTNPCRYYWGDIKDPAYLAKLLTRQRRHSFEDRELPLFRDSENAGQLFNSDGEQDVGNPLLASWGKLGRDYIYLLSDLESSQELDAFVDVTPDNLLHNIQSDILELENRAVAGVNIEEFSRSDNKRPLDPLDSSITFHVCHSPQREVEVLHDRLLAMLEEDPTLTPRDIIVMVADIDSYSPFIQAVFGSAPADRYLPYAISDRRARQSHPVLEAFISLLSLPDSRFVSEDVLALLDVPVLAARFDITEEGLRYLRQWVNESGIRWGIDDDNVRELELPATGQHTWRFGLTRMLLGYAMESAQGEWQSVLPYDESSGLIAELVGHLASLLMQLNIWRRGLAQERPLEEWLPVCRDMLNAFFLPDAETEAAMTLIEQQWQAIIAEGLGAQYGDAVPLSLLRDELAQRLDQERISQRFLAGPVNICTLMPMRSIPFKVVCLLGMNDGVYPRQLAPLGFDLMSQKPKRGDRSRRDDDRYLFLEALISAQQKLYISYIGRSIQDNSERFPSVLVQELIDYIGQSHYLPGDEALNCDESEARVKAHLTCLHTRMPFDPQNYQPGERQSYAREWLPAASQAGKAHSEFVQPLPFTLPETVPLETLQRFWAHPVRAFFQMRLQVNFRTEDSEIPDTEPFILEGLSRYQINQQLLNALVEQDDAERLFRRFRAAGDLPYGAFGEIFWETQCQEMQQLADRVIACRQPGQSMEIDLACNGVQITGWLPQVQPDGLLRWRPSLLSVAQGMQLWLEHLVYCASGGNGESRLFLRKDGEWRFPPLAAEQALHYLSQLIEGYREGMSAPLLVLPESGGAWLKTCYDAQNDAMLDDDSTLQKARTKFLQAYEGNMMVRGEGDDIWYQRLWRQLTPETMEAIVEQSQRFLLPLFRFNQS
T1 sequence (P08394 whole entry): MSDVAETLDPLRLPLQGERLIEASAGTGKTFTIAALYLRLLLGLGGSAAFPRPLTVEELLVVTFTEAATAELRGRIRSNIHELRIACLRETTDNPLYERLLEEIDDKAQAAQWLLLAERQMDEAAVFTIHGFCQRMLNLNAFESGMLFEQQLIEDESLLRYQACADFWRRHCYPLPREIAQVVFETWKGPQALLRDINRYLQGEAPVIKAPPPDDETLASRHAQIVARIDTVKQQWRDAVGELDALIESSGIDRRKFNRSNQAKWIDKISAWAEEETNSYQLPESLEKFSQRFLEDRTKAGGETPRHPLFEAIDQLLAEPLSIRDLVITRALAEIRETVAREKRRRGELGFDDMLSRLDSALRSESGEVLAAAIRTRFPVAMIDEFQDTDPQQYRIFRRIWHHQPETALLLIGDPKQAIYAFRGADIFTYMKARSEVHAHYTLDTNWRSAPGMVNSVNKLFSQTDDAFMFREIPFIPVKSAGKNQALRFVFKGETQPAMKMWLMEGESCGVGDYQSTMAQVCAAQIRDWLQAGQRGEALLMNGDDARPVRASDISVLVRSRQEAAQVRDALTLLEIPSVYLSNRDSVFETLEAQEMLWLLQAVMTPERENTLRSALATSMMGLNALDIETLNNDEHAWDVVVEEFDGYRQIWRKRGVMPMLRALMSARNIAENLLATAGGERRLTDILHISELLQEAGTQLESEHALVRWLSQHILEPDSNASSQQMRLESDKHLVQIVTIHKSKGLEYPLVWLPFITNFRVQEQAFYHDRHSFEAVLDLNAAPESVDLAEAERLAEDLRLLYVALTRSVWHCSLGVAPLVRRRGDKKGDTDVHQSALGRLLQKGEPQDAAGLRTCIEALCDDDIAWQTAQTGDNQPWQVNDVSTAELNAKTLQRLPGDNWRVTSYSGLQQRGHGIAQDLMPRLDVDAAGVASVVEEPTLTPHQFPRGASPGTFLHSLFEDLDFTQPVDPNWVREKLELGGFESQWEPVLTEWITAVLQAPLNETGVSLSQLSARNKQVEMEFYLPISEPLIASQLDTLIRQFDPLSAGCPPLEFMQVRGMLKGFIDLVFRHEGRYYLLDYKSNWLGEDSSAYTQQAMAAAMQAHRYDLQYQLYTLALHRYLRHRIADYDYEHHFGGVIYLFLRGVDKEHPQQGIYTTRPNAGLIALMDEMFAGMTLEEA

[5] = molecular target: T2, SUMO-activating enzyme (Homo sapiens, UniProt Q9UBT2); test: blockers of UBC9-mediated SUMO conjugation – biochemical, AlphaScreen, SUMOylation inhibitor project, confirmation (AID 2018); assay type: functional
[6] = molecular target: T2, SUMO-activating enzyme; test: blockers of SAE1/SAE2–UBC9 SUMO transfer – biochemical, HTRF, uHTS, primary screen (AID 2006); assay type: protein-complex assay
[7] = molecular target: T3, Apoptotic protease-activating factor 1 (Homo sapiens, UniProt O14727); assay type: functional
T3 sequence (O14727 whole entry): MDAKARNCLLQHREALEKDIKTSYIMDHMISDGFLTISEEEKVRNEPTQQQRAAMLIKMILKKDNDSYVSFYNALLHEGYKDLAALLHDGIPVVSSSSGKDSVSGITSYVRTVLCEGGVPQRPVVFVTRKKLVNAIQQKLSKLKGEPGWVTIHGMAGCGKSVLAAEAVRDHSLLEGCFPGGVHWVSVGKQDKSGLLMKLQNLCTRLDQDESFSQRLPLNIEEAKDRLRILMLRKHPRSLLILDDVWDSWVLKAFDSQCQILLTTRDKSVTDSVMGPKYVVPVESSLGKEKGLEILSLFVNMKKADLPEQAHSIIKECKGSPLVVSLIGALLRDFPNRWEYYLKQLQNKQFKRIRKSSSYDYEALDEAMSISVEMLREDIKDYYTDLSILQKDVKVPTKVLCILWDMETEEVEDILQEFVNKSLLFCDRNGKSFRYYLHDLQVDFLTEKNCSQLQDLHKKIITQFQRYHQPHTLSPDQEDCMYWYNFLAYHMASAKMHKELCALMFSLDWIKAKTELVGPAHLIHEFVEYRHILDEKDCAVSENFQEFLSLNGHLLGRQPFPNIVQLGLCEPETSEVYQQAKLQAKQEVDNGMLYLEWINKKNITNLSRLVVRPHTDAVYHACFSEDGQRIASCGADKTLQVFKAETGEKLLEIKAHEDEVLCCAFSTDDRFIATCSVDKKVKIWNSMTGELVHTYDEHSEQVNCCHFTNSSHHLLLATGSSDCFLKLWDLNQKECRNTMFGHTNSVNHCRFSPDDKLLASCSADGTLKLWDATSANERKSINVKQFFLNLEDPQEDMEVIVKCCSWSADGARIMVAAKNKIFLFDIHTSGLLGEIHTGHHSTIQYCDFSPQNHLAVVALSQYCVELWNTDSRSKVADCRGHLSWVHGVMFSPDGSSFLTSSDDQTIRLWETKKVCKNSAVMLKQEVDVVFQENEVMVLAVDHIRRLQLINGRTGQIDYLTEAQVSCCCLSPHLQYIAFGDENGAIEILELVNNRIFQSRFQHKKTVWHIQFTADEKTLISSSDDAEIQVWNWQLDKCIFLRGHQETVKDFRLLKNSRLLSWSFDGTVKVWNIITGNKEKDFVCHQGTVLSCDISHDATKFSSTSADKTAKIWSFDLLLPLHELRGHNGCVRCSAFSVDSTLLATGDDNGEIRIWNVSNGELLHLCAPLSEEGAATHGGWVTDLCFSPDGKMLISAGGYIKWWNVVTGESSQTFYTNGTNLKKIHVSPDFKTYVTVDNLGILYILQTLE

[8] = molecular target: T4, Tyrosyl-DNA phosphodiesterase 2 (Homo sapiens, UniProt O95551); test: potency against TDP2 phosphodiesterase activity – biochemical, epi absorbance, IC50, dose response (AID 743297)
T4 sequence (O95551 whole entry): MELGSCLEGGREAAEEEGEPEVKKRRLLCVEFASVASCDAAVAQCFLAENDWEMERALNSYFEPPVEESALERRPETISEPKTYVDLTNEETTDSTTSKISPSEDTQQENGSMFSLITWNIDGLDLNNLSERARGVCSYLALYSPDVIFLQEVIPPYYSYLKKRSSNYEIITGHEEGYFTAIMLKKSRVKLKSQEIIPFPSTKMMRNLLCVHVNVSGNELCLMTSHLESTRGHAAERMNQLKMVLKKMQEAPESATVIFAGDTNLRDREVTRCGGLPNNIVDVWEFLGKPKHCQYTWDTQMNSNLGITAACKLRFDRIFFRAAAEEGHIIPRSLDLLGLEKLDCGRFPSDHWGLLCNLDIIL

[9] = molecular target: Genome polyprotein (dengue virus type 2, UniProt P29990); test: flavivirus cap methylation enzyme inhibition – biochemical, confirmation dose response, primary screen (AID 588689); assay type: functional
[10] = system: BJ; test: cells; assay type: functional, cell-based; details: Homo sapiens
[11] = cells; assay type: functional, cell-based
[12] = system: BJ; test: growth inhibition of engineered Ras-driven BJ cells – cell-based, alamar blue fluorescence, cherrypicked samples, dose response (AID 2631); assay type: functional; details: Homo sapiens;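 note: confirmatory dose-response assay in RAS-dependent BJ fibroblasts engineered with TERT, LT and ST, with cytotoxicity read by fluorescence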
[13] = system: BJ; test: BJ-TERT-LT-ST fibroblast viability loss – cell-based, RAS-independent, luminescence, dose response (AID 1935); assay type: functional; details: Homo sapiens;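 note: BJ fibroblasts immortalized with TERT plus LT and ST oncogenes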
[14] = system: BJ; test: BJ-TERT fibroblast viability loss – cell-based, RAS-independent, luminescence, dose response (AID 1933); assay type: functional; details: Homo sapiens
[15] = system: INS1; test: INS-1E survival protection against cytokine death – cell-based, luminescence, retest, dose response (AID 449756); assay type: functional; details: Rattus norvegicus;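 note: cell death triggered by IL-1 beta plus TNF-alpha plus IFN-gamma mixture; protective hits raise ATP signal compared with cytokine alone wells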
[16] = DRD fibroblast viability loss – cell-based, non-viral oncogenic, luminescence, dose response (AID 1934); assay type: functional; details: Homo sapiens
[17] = cells; assay type: functional, cell-based; remark: listed apart in the source

T2 sequence (Q9UBE0 whole entry): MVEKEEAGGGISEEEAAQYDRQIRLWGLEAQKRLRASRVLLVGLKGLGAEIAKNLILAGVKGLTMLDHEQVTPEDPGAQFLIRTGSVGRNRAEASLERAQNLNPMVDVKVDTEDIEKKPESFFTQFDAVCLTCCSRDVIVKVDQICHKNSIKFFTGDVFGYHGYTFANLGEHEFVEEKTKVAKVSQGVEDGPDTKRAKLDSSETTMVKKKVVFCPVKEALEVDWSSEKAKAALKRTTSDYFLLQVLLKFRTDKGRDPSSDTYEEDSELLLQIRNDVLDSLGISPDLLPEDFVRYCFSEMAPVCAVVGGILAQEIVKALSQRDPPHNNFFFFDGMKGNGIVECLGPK
T2 sequence (Q9UBT2 whole entry): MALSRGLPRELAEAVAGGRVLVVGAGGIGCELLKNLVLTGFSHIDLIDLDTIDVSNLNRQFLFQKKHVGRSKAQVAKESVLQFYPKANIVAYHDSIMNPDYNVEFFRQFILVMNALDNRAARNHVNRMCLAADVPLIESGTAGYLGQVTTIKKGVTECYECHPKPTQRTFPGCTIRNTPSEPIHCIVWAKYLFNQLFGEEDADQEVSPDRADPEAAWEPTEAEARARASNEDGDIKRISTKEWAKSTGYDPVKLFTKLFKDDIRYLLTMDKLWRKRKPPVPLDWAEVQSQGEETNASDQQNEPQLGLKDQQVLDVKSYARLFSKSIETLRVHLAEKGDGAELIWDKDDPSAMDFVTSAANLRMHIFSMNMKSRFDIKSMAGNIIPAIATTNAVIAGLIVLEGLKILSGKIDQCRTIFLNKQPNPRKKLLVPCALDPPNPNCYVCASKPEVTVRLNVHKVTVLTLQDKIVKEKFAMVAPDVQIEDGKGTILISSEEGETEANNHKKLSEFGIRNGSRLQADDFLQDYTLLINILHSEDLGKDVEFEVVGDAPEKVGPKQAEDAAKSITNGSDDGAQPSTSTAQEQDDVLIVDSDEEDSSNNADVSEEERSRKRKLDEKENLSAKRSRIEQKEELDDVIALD
Chain of Genome polyprotein (P29990 2492-3391 limits assumed): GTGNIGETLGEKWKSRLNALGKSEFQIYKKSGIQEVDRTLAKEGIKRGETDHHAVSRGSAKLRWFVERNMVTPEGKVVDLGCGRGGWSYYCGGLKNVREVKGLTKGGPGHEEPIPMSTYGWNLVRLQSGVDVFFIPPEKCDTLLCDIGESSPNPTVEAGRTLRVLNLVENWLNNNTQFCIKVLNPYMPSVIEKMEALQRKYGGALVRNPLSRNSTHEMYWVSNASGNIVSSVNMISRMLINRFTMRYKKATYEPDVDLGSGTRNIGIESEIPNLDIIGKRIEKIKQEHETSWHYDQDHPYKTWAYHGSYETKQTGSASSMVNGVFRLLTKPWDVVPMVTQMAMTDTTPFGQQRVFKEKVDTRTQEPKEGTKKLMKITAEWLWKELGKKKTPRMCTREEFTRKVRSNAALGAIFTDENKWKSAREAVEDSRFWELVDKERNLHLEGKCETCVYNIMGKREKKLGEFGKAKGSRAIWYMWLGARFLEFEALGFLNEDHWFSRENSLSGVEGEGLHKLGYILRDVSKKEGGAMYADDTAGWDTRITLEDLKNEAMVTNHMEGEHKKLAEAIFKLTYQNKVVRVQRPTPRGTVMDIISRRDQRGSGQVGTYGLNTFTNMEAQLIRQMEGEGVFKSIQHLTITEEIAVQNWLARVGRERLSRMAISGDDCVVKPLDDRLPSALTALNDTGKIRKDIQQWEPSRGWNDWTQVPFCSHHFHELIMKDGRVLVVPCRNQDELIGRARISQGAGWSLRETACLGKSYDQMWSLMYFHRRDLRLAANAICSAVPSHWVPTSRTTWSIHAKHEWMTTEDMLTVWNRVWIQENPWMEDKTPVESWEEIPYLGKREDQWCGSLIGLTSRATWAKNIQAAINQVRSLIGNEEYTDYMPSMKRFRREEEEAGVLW

**Q.** For `Cn1cc(CN2CCCC(C(=O)Nc3ccc(-c4cccc(F)c4)cc3)C2)cn1` (stereo not given), which IC50 [1] is on record?
**A.** 22.6 µM (active)

**Q.** What about the CC50 [2] of the same compound?
**A.** 22.3 µM (active)

**Q.** Which results are given for `O=C(Cn1cnc2ccccc21)Nc1ccc2c(c1)OCCCO2`?
**A.** IC50 [3]: > 119 µM (inactive); IC50 [4]: > 119 µM (inactive)

**Q.** What does the source list for `CN1CCN(CCCN2c3ccccc3Sc3ccc(S(=O)(=O)N(C)C)cc32)CC1`?
**A.** IC50 [1]: > 25 µM (active); CC50 [2]: > 25 µM (active)

**Q.** With `CN(C)CCCN(C(=O)c1ccc2c(c1)OCCO2)c1nc2ccc(Cl)cc2s1` as the compound, how does the IC50 [1] read?
**A.** > 25 µM (active)

**Q.** What about the CC50 [2] of the same compound?
**A.** > 25 µM (active)

**Q.** For `COc1cc(C(c2c(C)[nH]n(-c3ccccc3)c2=O)c2c(C)[nH]n(-c3ccccc3)c2=O)cc(OC)c1OC`, which IC50 [5] is on record?
**A.** 6.66 µM (active)

**Q.** And the IC50 [6]?
**A.** 33.9 µM (active)

**Q.** What about the IC50 [7] of the same compound?
**A.** 24.4 µM (active)

**Q.** What about the IC50 [8] of the same compound?
**A.** 19.9 µM (inactive)

**Q.** What about the IC50 [9] of the same compound?
**A.** 38.3 µM (active)

**Q.** For `C/C(=N\NC1=NC(=O)C(CC(=O)O)S1)c1ccccn1` (stereo not given), which IC50 [3] is on record?
**A.** > 118 µM (inactive)

**Q.** What about the IC50 [4] of the same compound?
**A.** 73.3 µM (inactive)

**Q.** With `C/C(=N\Nc1ccc2nncn2n1)c1ccccn1` as the compound, how does the IC50 [3] read?
**A.** 114 µM (inactive)

**Q.** And the EC50 [10]?
**A.** 4.29 µM (active)

**Q.** And the EC50 [11]?
**A.** > 350 µM (not active)

**Q.** And the EC50 [12]?
**A.** 0.912 µM (active)

**Q.** What about the EC50 [13] of the same compound?
**A.** 8.41 µM (inconclusive)

**Q.** What about the EC50 [14] of the same compound?
**A.** 16 µM (active)

**Q.** What about the AC50 [15] of the same compound?
**A.** 0.898 µM (active)

**Q.** What about the EC50 [16] of the same compound?
**A.** 4.95 µM (active)

**Q.** What about the IC50 [4] of the same compound?
**A.** 57.1 µM (inactive)

**Q.** What about the EC50 [17] of the same compound?
**A.** 6.99 µM (active)
